Literature values as cited in patent US20060183897A1, “Biaryl substituted triazoles as sodium channel blockers” (priority 2003, published 2006).

Columns and labels:
[1] = test system: rat models of peripheral nerve injury; conditions: intravenous application; concentrations that do not affect general behavior and motor function
[2] = test system: patients with peripheral nerve injury; conditions: continuous infusion; placebo-controlled
[3] = test system: postherpetic neuralgia (PHN); conditions: intravenous

## CCN(CC)CC(=O)Nc1c(C)cccc1C [lidocaine]
[1]
  ectopic activity in the injured nerve: suppress the ectopic activity
  tactile allodynia: reverse the tactile allodynia
[2]
  pain scores: reduced pain scores
[3]
  pain intensity associated with postherpetic neuralgia: reduced pain intensity
